Measurements as given in US8114885B2, “Chemical compounds” (GlaxoSmithKline LLC, priority 2000, dated 2012).
pIC50: −log10 of the molar value. Structures can show the parent of a compound that is named as a salt.

Test system: HUVEC
Test: Human Umbilical Vein Endothelial Cell (HUVEC) proliferation assay (BrdU incorporation)
Format: cell-based
Details: VEGF-stimulated HUVEC, 72 hrs, read-out: Inhibition of HUVEC proliferation IC50
Description: Human Umbilical Vein Endothelial Cell (HUVEC) Proliferation Assay (BrdU Incorporation) Materials
HUVEC cells and EGM-MV (Endothelial cell growth medium—microvascular) were purchased from Clonetics (San Diego, Calif.). VEGF and bFGF were purchased from R&D Systems (Minneapolis, Minn.). Anti-BrdU antibody was obtained from Chemicon International (Temecula, Calif.).
HUVECs were routinely maintained in EGM-MV medium and were used within passage 7. HUVECs were plated at a density of 2500 cells/well in M199 medium containing 5% FBS (Hyclone) in type I collagen coated plate (Becton Dickinson). The plate was incubated at 37° C. overnight. The medium was removed by aspiration, and test compounds were added to each well in a volume of 0.1 ml/well in serum-free M199 medium. Compound concentrations ranged from 1.5 nM to 30 micromolar. The plate was incubated for 30 min at 37° C. Another 0.1 ml of serum-free M199 medium containing BSA and VEGF (or bFGF) was added to give a final concentration of 0.1% BSA and 10 ng/ml VEGF (0.3 ng/ml bFGF). The plate was incubated at 37° C. for 72 hrs. BrdU was added to each well after the first 48 hrs to give a concentration of 10 micromolar. The calorimetric ELISA assay was performed according to manufacturer's (Roche Molecular Sciences) instructions, with detection by absorbance reading at 450 nm. Results were plotted as concentration of test compound vs. absorbance to give an IC50 value for inhibition of BrdU incorporation.

Question: How did the pIC50 turn out when `CCS(=O)(=O)c1ccc(OC)c(Nc2ncc(F)c(N(C)c3ccc4c(C)n[nH]c4c3)n2)c1` [Example 1, N^2-[5-(ethylsulfonyl)-2-methoxyphenyl]-5-fluoro-N^4-methyl-N^4-(3-methyl-1H-indazol-6-yl)-2,4-pyrimidinediamine] was run?
Answer: The pIC50 was 6.30 to 6.70.

Question: With `CNS(=O)(=O)c1ccc(OC)c(Nc2ncc(F)c(N(C)c3ccc4c(C)n[nH]c4c3)n2)c1` [Example 2, 3-({5-fluoro-4-[methyl(3-methyl-1H-indazol-6-yl)amino]-2-pyrimidinyl}amino)-4-methoxy-N-methylbenzenesulfonamide] as the compound, how does the pIC50 read?
Answer: Its pIC50 is 6.70 to 9.00.

Question: `Cc1n[nH]c2cc(N(C)c3nc(Nc4cccc(CS(C)(=O)=O)c4)ncc3F)ccc12` [Example 3, 5-fluoro-N^4-methyl-N^4-(3-methyl-1H-indazol-6-yl)-N^2-{3-[(methylsulfonyl)methyl]phenyl}-2,4-pyrimidinediamine] was tested. Which pIC50 did it give?
Answer: The pIC50 was 6.70 to 9.00.

Question: How did the pIC50 turn out when `COc1ccc(S(=O)(=O)NC(C)C)cc1Nc1ncc(F)c(N(C)c2ccc3c(C)n[nH]c3c2)n1` [Example 4, 3-({5-fluoro-4-[methyl(3-methyl-1H-indazol-6-yl)amino]-2-pyrimidinyl}amino)-N-isopropyl-4-methoxybenzenesulfonamide] was run?
Answer: The pIC50 was 6.30 to 6.70.

Question: With `COc1ccc(S(=O)(=O)C(C)C)cc1Nc1ncc(F)c(N(C)c2ccc3c(C)n[nH]c3c2)n1` [Example 5, 5-fluoro-N^2-[5-(isopropylsulfonyl)-2-methoxyphenyl]-N^4-methyl-N^4-(3-methyl-1H-indazol-6-yl)-2,4-pyrimidinediamine] as the compound, how does the pIC50 read?
Answer: Its pIC50 is 6.30 to 6.70.

Question: How did the pIC50 turn out when `Cc1ccc(Nc2ncc(F)c(N(C)c3ccc4c(C)n[nH]c4c3)n2)cc1NS(C)(=O)=O` [Example 6, N-[5-({5-fluoro-4-[methyl(3-methyl-1H-indazol-6-yl)amino]-2-pyrimidinyl}amino)-2-methylphenyl]methanesulfonamide] was run?
Answer: The pIC50 was 6.30 to 6.70.

Question: How did the pIC50 turn out when `Cc1n[nH]c2cc(N(C)c3nc(Nc4ccc(S(C)(=O)=O)cc4)ncc3F)ccc12` [Example 7, 5-fluoro-N^4-methyl-N^4-(3-methyl-1H-indazol-6-yl)-N^2-[4-(methylsulfonyl)phenyl]-2,4-pyrimidinediamine] was run?
Answer: The pIC50 was 6.30 to 6.70.

Question: `CCc1n[nH]c2cc(N(C)c3nc(Nc4cccc(CS(C)(=O)=O)c4)ncc3F)ccc12` [Example 8, N^4-(3-ethyl-1H-indazol-6-yl)-5-fluoro-N^4-methyl-N^2-{3-[(methylsulfonyl)methyl]phenyl}-2,4-pyrimidinediamine] was tested. Which pIC50 did it give?
Answer: Its pIC50 is 6.30 to 6.70.

Question: `Cc1n[nH]c2cc(N(C)c3nc(Nc4ccc(S(N)(=O)=O)cc4)ncc3F)ccc12` [Example 9, 4-({5-fluoro-4-[methyl(3-methyl-1H-indazol-6-yl)amino]-2-pyrimidinyl}amino)benzenesulfonamide] was tested. Which pIC50 did it give?
Answer: The pIC50 was 6.30 to 6.70.

Question: With `CCN(c1ccc2c(C)n[nH]c2c1)c1nc(Nc2cc(S(C)(=O)=O)ccc2OC)ncc1F` [Example 10, N^4-ethyl-5-fluoro-N^2-[2-methoxy-5-(methylsulfonyl)phenyl]-N^4-(3-methyl-1H-indazol-6-yl)-2,4-pyrimidinediamine] as the compound, how does the pIC50 read?
Answer: The pIC50 was < 6.00.

Question: `CNS(=O)(=O)Cc1ccc(Nc2ncc(F)c(N(C)c3ccc4c(C)n[nH]c4c3)n2)cc1` [Example 11, [4-({5-fluoro-4-[methyl(3-methyl-1H-indazol-6-yl)amino]-2-pyrimidinyl}amino)phenyl]-N-methylmethanesulfonamide] was tested. Which pIC50 did it give?
Answer: The pIC50 was 6.30 to 6.70.

Question: How did the pIC50 turn out when `Cc1n[nH]c2cc(N(C)c3nc(Nc4cccc(CS(=O)(=O)C(C)C)c4)ncc3F)ccc12` [Example 12, 5-fluoro-N^2-{3-[(isopropylsulfonyl)methyl]phenyl}-N^4-methyl-N^4-(3-methyl-1H-indazol-6-yl)-2,4-pyrimidinediamine] was run?
Answer: Its pIC50 is 6.70 to 9.00.

Question: `COc1ccc(C(N)=O)cc1Nc1ncc(F)c(N(C)c2ccc3c(C)n[nH]c3c2)n1` [Example 13, 3-({5-fluoro-4-[methyl(3-methyl-1H-indazol-6-yl)amino]-2-pyrimidinyl}amino)-4-methoxybenzamide] was tested. Which pIC50 did it give?
Answer: The pIC50 was 6.30 to 6.70.

Question: `COc1cc(S(N)(=O)=O)ccc1Nc1ncc(F)c(N(C)c2ccc3c(C)n[nH]c3c2)n1` [Example 14, 4-({5-fluoro-4-[methyl(3-methyl-1H-indazol-6-yl)amino]-2-pyrimidinyl}amino)-3-methoxybenzenesulfonamide] was tested. Which pIC50 did it give?
Answer: Its pIC50 is 6.70 to 9.00.

Question: With `Cc1n[nH]c2cc(Nc3ncnc(Nc4cccc(CS(C)(=O)=O)c4)n3)ccc12` [Example 15, N^2-(3-methyl-1H-indazol-6-yl)-N^4-{3-[(methylsulfonyl)methyl]phenyl}-1,3,5-triazine-2,4-diamine trifluoroacetate] as the compound, how does the pIC50 read?
Answer: Its pIC50 is 6.00 to 6.30.

Question: With `Cc1n[nH]c2cc(N(C)c3ncnc(Nc4cccc(CS(C)(=O)=O)c4)n3)ccc12` [Example 16, N^2-methyl-N^2-(3-methyl-1H-indazol-6-yl)-N^4-{3-[(methylsulfonyl)methyl]phenyl}-1,3,5-triazine-2,4-diamine hydrochloride] as the compound, how does the pIC50 read?
Answer: The pIC50 was 6.30 to 6.70.

Question: How did the pIC50 turn out when `CCS(=O)(=O)c1ccc(OC)c(Nc2ncnc(N(C)c3ccc4c(C)n[nH]c4c3)n2)c1` [Example 17, N^2-[5-(ethylsulfonyl)-2-methoxyphenyl]-N^4-methyl-N^4-(3-methyl-1H-indazol-6-yl)-1,3,5-triazine-2,4-diamine hydrochloride] was run?
Answer: Its pIC50 is 6.00 to 6.30.

Question: How did the pIC50 turn out when `Cc1ccc(Nc2ncnc(N(C)c3ccc4c(C)n[nH]c4c3)n2)cc1NS(C)(=O)=O` [Example 18, N-[2-methyl-5-({4-[methyl(3-methyl-1H-indazol-6-yl)amino]-1,3,5-triazin-2-yl}amino)phenyl]methanesulfonamide] was run?
Answer: Its pIC50 is 6.00 to 6.30.

Question: With `Cc1n[nH]c2cc(N(C)c3ncnc(Nc4cccc(S(C)(=O)=O)c4)n3)ccc12` [Example 19, N^2-methyl-N^2-(3-methyl-1H-indazol-6-yl)-N^4-[3-(methylsulfonyl)phenyl]-1,3,5-triazine-2,4-diamine] as the compound, how does the pIC50 read?
Answer: The pIC50 was 6.30 to 6.70.

Question: `CC(=O)Nc1ccc(Nc2ncnc(N(C)c3ccc4c(C)n[nH]c4c3)n2)cc1` [Example 20, N-[4-({4-[methyl(3-methyl-1H-indazol-6-yl)amino]-1,3,5-triazin-2-yl}amino)phenyl]acetamide hydrochloride] was tested. Which pIC50 did it give?
Answer: Its pIC50 is < 6.00.

Question: With `Cc1n[nH]c2cc(N(C)c3ccnc(Nc4cccc(S(N)(=O)=O)c4)n3)ccc12` [Example 21, 3-({4-[methyl(3-methyl-1H-indazol-6-yl)amino]-2-pyrimidinyl}amino)benzenesulfonamide hydrochloride] as the compound, how does the pIC50 read?
Answer: Its pIC50 is 6.70 to 9.00.

Question: How did the pIC50 turn out when `CCS(=O)(=O)c1ccc(OC)c(Nc2nccc(N(C)c3ccc4c(C)n[nH]c4c3)n2)c1` [Example 22, N^2-[5-(ethylsulfonyl)-2-methoxyphenyl]-N^4-methyl-N^4-(3-methyl-1H-indazol-6-yl)-2,4-pyrimidinediamine] was run?
Answer: The pIC50 was 6.70 to 9.00.

Question: How did the pIC50 turn out when `Cc1n[nH]c2cc(N(C)c3ccnc(Nc4cccc(CS(C)(=O)=O)c4)n3)ccc12` [Example 23, N^4-methyl-N^4-(3-methyl-1H-indazol-6-yl)-N^2-{3-[(methylsulfonyl)methyl]phenyl}-2,4-pyrimidinediamine] was run?
Answer: The pIC50 was 6.70 to 9.00.

Question: `Cc1n[nH]c2cc(N(C)c3ccnc(Nc4cccc(S(=O)(=O)NC(C)C)c4)n3)ccc12` [Example 24, N-isopropyl-3-({4-[methyl(3-methyl-1H-indazol-6-yl)amino]-2-pyrimidinyl}amino)benzenesulfonamide] was tested. Which pIC50 did it give?
Answer: The pIC50 was 6.70 to 9.00.

Question: With `Cc1n[nH]c2cc(N(C)c3ccnc(Nc4cccc(S(=O)(=O)NC5CC5)c4)n3)ccc12` [Example 25, N-cyclopropyl-3-({4-[methyl(3-methyl-1H-indazol-6-yl)amino]-2-pyrimidinyl}amino)benzenesulfonamide] as the compound, how does the pIC50 read?
Answer: The pIC50 was 6.70 to 9.00.
